Laboratory results taken from patent US20260055102A1 (Redx Pharma Limited, priority 2022, published 2026).

What was measured:
[1] = target: Recombinant human DDR2 (aa427-855 containing a GST tag) (Homo sapiens (Human), UniProt Q16832); assay: LanthaScreen Eu Kinase Binding Assay DDR2; conditions: Kinase Tracer 178 10 nM, at least two independent replicates; for IC50: read-out: DDR2 pIC50 (converted)
How it was run: (§1)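 DDR1 (2.5 nM) or DDR2 (1.75 nM) was preincubated with compound 30 min at RT in 50 mM HEPES pH 7.3, 10 mM MgCl2, 1 mM EGTA, 0.01% Tween. Eu-anti-GST and Tracer 178 were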

[2] = target: Recombinant human DDR1 (aa440-876 containing a GST tag) (Homo sapiens (Human), UniProt Q08345); assay: LanthaScreen Eu Kinase Binding Assay DDR1; conditions: Kinase Tracer 178 5 nM, at least two independent replicates; for IC50: read-out: DDR1 pIC50 (converted)
How it was run: as §1

Sequence of Recombinant human DDR2 (aa427-855 containing a GST tag) (Q16832 427-855): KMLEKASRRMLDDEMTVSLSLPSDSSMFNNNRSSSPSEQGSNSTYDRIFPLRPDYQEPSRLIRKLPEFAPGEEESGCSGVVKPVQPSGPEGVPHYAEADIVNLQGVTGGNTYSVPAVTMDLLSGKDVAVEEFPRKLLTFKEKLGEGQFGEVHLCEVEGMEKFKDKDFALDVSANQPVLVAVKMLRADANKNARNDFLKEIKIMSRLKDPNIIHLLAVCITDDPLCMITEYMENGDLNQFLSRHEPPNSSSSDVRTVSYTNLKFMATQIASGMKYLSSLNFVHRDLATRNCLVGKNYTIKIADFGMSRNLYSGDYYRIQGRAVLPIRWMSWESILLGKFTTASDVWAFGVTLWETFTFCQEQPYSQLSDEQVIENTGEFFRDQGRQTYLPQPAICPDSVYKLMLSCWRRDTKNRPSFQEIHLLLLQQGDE
Sequence of Recombinant human DDR1 (aa440-876 containing a GST tag) (Q08345 other isoform, or with tags, fused parts or gaps): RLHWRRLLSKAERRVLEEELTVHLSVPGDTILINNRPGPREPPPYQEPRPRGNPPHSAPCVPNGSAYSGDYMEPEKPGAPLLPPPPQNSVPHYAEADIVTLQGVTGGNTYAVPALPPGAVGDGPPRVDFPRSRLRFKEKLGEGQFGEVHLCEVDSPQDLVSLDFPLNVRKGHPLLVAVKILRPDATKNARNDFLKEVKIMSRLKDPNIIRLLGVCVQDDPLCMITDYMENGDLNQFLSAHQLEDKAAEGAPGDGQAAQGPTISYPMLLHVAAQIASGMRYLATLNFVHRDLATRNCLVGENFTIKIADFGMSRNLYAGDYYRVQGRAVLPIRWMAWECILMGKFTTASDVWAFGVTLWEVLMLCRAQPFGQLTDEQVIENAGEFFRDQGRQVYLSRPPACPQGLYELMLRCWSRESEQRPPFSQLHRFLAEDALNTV

Which results are given for `Cc1cccc2c1n(-c1ccc(-c3cncc4[nH]ncc34)cn1)c(=O)n2CC(=O)N[C@@H](C)C(F)(F)F` [Example 69, 2-[4-methyl-2-oxo-3-[5-(1H-pyrazolo[3,4-c]pyridin-4-yl)-2-pyridyl]benzimidazol-1-yl]-N-[(1S)-2,2,2-trifluoro-1-methyl-ethyl]acetamide]?
IC50 [1]: 10 to 100 nM; DDR1 pIC50 [2]: A (pIC50>8)

Which results are given for `Cc1cccc2c1n(-c1ccc(-c3cncc4[nH]ncc34)cn1)c(=O)n2CC(=O)N1CCO[C@H](C(F)(F)F)C1` [Example 70, 4-methyl-1-[2-oxo-2-[(2S)-2-(trifluoromethyl)morpholin-4-yl]ethyl]-3-[5-(1H-pyrazolo[3,4-c]pyridin-4-yl)-2-pyridyl]benzimidazol-2-one]?
IC50 [1]: 100 to 1000 nM; DDR1 pIC50 [2]: A (pIC50>8)

`Cc1cccc2c1n(-c1ccc(-c3cncc4[nH]ncc34)cn1)c(=O)n2CC(=O)N1CCO[C@@H](C(F)(F)F)C1` [Example 71, 4-methyl-1-[2-oxo-2-[(2R)-2-(trifluoromethyl)morpholin-4-yl]ethyl]-3-[5-(1H-pyrazolo[3,4-c]pyridin-4-yl)-2-pyridyl]benzimidazol-2-one] was tested. Which IC50 [1] did it give?
Its IC50 is 100 to 1000 nM.

And the “DDR1 pIC50” value [2]?
The value was “A (pIC50>8)”.

For `Cc1cccc2c1n(-c1ccc(-c3cncc4[nH]ncc34)cn1)c(=O)n2CC(=O)NCC(F)(F)F` [Example 72, 2-[4-methyl-2-oxo-3-[5-(1H-pyrazolo[3,4-c]pyridin-4-yl)-2-pyridyl]benzimidazol-1-yl]-N-(2,2,2-trifluoroethyl)acetamide], which IC50 [1] is on record?
The IC50 was 100 to 1000 nM.

And the “DDR1 pIC50” value [2]?
Its value is “A (pIC50>8)”.

Which IC50 [1] does the source give for `Cc1cccc2c1n(-c1ncc(-c3cncc4[nH]ncc34)cn1)c(=O)n2CC(=O)N[C@@H](C)C(F)(F)F` [Example 73, 2-[4-methyl-2-oxo-3-[5-(1H-pyrazolo[3,4-c]pyridin-4-yl)pyrimidin-2-yl]benzimidazol-1-yl]-N-[(1S)-2,2,2-trifluoro-1-methyl-ethyl]acetamide] here?
Its IC50 is 100 to 1000 nM.

And the “DDR1 pIC50” value [2]?
Its value is “A (pIC50>8)”.

Which results are given for `Cn1ncc2c(-c3ccc(-n4c(=O)n(CC(=O)NCC(F)(F)F)c5cccc(C#N)c54)cc3)cncc21` [Example 74, 2-[4-cyano-3-[4-(1-methylpyrazolo[3,4-c]pyridin-4-yl)phenyl]-2-oxo-benzimidazol-1-yl]-N-(2,2,2-trifluoroethyl)acetamide]?
DDR2 pIC50 [1]: D (pIC50≤6); IC50 [2]: 10 to 100 nM

With `Cc1cccc2c1n(-c1cnc(-c3cncc4c3cnn4C)nc1)c(=O)n2CC(=O)NCC(F)(F)F` [Example 75, 2-[4-methyl-3-[2-(1-methylpyrazolo[3,4-c]pyridin-4-yl)pyrimidin-5-yl]-2-oxo-benzimidazol-1-yl]-N-(2,2,2-trifluoroethyl)acetamide] as the compound, how does the IC50 [1] read?
Its IC50 is 100 to 1000 nM.

And the IC50 [2]?
The IC50 was 10 to 100 nM.

What does the source list for `Cn1ncc2c(-c3ccc(-n4c(=O)n(CC(=O)NCC(F)(F)F)c5cccnc54)cc3)cncc21` [Example 76, 2-[3-[4-(1-methylpyrazolo[3,4-c]pyridin-4-yl)phenyl]-2-oxo-imidazo[4,5-b]pyridin-1-yl]-N-(2,2,2-trifluoroethyl)acetamide]?
DDR2 pIC50 [1]: D (pIC50≤6); DDR1 pIC50 [2]: D (pIC50≤6)

Which results are given for `Cn1ncc2c(-c3ccc(-n4c(=O)n(CC(=O)NCC(F)(F)F)c5ccncc54)cc3)cncc21` [Example 77, 2-[3-[4-(1-methylpyrazolo[3,4-c]pyridin-4-yl)phenyl]-2-oxo-imidazo[4,5-c]pyridin-1-yl]-N-(2,2,2-trifluoroethyl)acetamide]?
DDR2 pIC50 [1]: D (pIC50≤6); DDR1 pIC50 [2]: D (pIC50≤6)

`Cn1ncc2c(-c3ccc(-n4c(=O)n(CC(=O)NCC(F)(F)F)c5cnccc54)cc3)cncc21` [Example 78, 2-[1-[4-(1-methylpyrazolo[3,4-c]pyridin-4-yl)phenyl]-2-oxo-imidazo[4,5-c]pyridin-3-yl]-N-(2,2,2-trifluoroethyl)acetamide] was tested. Which “DDR2 pIC50” value [1] did it give?
Its value is “D (pIC50≤6)”.

What about the “DDR1 pIC50” value [2] of the same compound?
The value was “D (pIC50≤6)”.

How did the “DDR2 pIC50” value [1] turn out when `Cn1ncc2c(-c3ccc(-n4c(=O)n(CC(=O)N5CCC[C@H]5C(F)(F)F)c5cccnc54)cc3)cncc21` [Example 79, 3-[4-(1-methylpyrazolo[3,4-c]pyridin-4-yl)phenyl]-1-[2-oxo-2-[(2S)-2-(trifluoromethyl)pyrrolidin-1-yl]ethyl]imidazo[4,5-b]pyridin-2-one] was run?
The value was “D (pIC50≤6)”.

And the IC50 [2]?
The IC50 was 10 to 100 nM.

What does the source list for `COc1cccc2c1n(-c1ccc(-c3cncc4c3cnn4C)cc1C)c(=O)n2CC(=O)NCC(F)(F)F` [Example 81, 2-[4-methoxy-3-[2-methyl-4-(1-methylpyrazolo[3,4-c]pyridin-4-yl)phenyl]-2-oxo-benzimidazol-1-yl]-N-(2,2,2-trifluoroethyl)acetamide]?
DDR2 pIC50 [1]: D (pIC50≤6); DDR1 pIC50 [2]: D (pIC50≤6)

Which IC50 [1] does the source give for `Cc1cc(-c2cncc3c2cnn3C)ccc1-n1c(=O)n(CC(=O)N[C@@H](C)C(F)(F)F)c2cccc(C)c21` [Example 82, 2-[4-methyl-3-[2-methyl-4-(1-methylpyrazolo[3,4-c]pyridin-4-yl)phenyl]-2-oxo-benzimidazol-1-yl]-N-[(1S)-2,2,2-trifluoro-1-methyl-ethyl]acetamide] here?
The IC50 was 10 to 100 nM.

And the “DDR1 pIC50” value [2]?
The value was “A (pIC50>8)”.

What does the source list for `Cc1cc(-c2cncc3c2cnn3C)ccc1-n1c(=O)n(CC(=O)NCC(F)(F)F)c2cccc(Cl)c21` [Example 83, 2-[4-chloro-3-[2-methyl-4-(1-methylpyrazolo[3,4-c]pyridin-4-yl)phenyl]-2-oxo-benzimidazol-1-yl]-N-(2,2,2-trifluoroethyl)acetamide]?
IC50 [1]: 100 to 1000 nM; DDR1 pIC50 [2]: A (pIC50>8)

Which IC50 [1] does the source give for `Cc1cc(-c2cncc3c2cnn3C)ccc1-n1c(=O)n(CC(=O)N[C@@H](C)C(F)(F)F)c2cccc(Cl)c21` [Example 84, 2-[4-chloro-3-[2-methyl-4-(1-methylpyrazolo[3,4-c]pyridin-4-yl)phenyl]-2-oxo-benzimidazol-1-yl]-N-[(1S)-2,2,2-trifluoro-1-methyl-ethyl]acetamide] here?
The IC50 was 10 to 100 nM.

And the “DDR1 pIC50” value [2]?
The value was “A (pIC50>8)”.

For `COc1cccc2c1n(-c1ccc(-c3cncc4c3cnn4C)cc1)c(=O)n2CC(=O)N[C@@H](C)C(F)(F)F` [Example 85, 2-[4-methoxy-3-[4-(1-methylpyrazolo[3,4-c]pyridin-4-yl)phenyl]-2-oxo-benzimidazol-1-yl]-N-[(1S)-2,2,2-trifluoro-1-methyl-ethyl]acetamide], which “DDR2 pIC50” value [1] is on record?
Its value is “D (pIC50≤6)”.

What about the “DDR1 pIC50” value [2] of the same compound?
Its value is “D (pIC50≤6)”.

What does the source list for `Cn1ncc2c(-c3ccc(-n4c(=O)n(CC(=O)NCC(F)(F)F)c5cccc(F)c54)cc3)cncc21` [Example 86, 2-[4-fluoro-3-[4-(1-methylpyrazolo[3,4-c]pyridin-4-yl)phenyl]-2-oxo-benzimidazol-1-yl]-N-(2,2,2-trifluoroethyl)acetamide]?
DDR2 pIC50 [1]: D (pIC50≤6); IC50 [2]: 100 to 1000 nM

How did the “DDR2 pIC50” value [1] turn out when `Cn1ncc2c(-c3ccc(-n4c(=O)n(CC(=O)NCC(F)(F)F)c5ccccc54)c(Cl)c3)cncc21` [Example 87, 2-[3-[2-chloro-4-(1-methylpyrazolo[3,4-c]pyridin-4-yl)phenyl]-2-oxo-benzimidazol-1-yl]-N-(2,2,2-trifluoroethyl)acetamide] was run?
Its value is “D (pIC50≤6)”.

And the “DDR1 pIC50” value [2]?
The value was “A (pIC50>8)”.

For `COc1cc(-c2cncc3c2cnn3C)ccc1-n1c(=O)n(CC(=O)NCC(F)(F)F)c2ccccc21` [Example 88, 2-[3-[2-methoxy-4-(1-methylpyrazolo[3,4-c]pyridin-4-yl)phenyl]-2-oxo-benzimidazol-1-yl]-N-(2,2,2-trifluoroethyl)acetamide], which “DDR2 pIC50” value [1] is on record?
The value was “D (pIC50≤6)”.

What about the IC50 [2] of the same compound?
The IC50 was 100 to 1000 nM.

For `Cn1ncc2c(-c3cc(F)c(-n4c(=O)n(CC(=O)NCC(F)(F)F)c5ccccc54)c(F)c3)cncc21` [Example 89, 2-[3-[2,6-difluoro-4-(1-methylpyrazolo[3,4-c]pyridin-4-yl)phenyl]-2-oxo-benzimidazol-1-yl]-N-(2,2,2-trifluoroethyl)acetamide], which “DDR2 pIC50” value [1] is on record?
The value was “D (pIC50≤6)”.

What about the IC50 [2] of the same compound?
Its IC50 is 10 to 100 nM.

Which results are given for `Cc1cc(-c2cncc3c2cnn3C)cc(C)c1-n1c(=O)n(CC(=O)NCC(F)(F)F)c2ccccc21` [Example 90, 2-[3-[2,6-dimethyl-4-(1-methylpyrazolo[3,4-c]pyridin-4-yl)phenyl]-2-oxo-benzimidazol-1-yl]-N-(2,2,2-trifluoroethyl)acetamide]?
DDR2 pIC50 [1]: D (pIC50≤6); IC50 [2]: 100 to 1000 nM

What does the source list for `Cn1ncc2c(-c3ccc(-n4c(=O)n(CC(=O)NCC(F)(F)F)c5ccccc54)cn3)cncc21` [Example 91, 2-[3-[6-(1-methylpyrazolo[3,4-c]pyridin-4-yl)-3-pyridyl]-2-oxo-benzimidazol-1-yl]-N-(2,2,2-trifluoroethyl)acetamide]?
DDR2 pIC50 [1]: D (pIC50≤6); DDR1 pIC50 [2]: C (7≥pIC50>6)

`Cc1cc(-c2cncc3[nH]ncc23)ncc1-n1c(=O)n(CC(=O)NCC(F)(F)F)c2cccc(C)c21` [Example 93, 2-[4-methyl-3-[4-methyl-6-(1H-pyrazolo[3,4-c]pyridin-4-yl)-3-pyridyl]-2-oxo-benzimidazol-1-yl]-N-(2,2,2-trifluoroethyl)acetamide] was tested. Which IC50 [1] did it give?
The IC50 was 100 to 1000 nM.

What about the “DDR1 pIC50” value [2] of the same compound?
The value was “A (pIC50>8)”.
